# In patent US9718771B2, “Aniline derivative, pharmaceutical composition containing same, and use thereof” (Kissei Pharmaceutical Co., Ltd., priority 2014, dated 2017):
# Target: human S1P1 (EDG-1) (Homo sapiens (Human), UniProt P21453)
# Assay: Confirmation test of antagonistic activity for human S1P1 receptor (35S-GTP binding, cell membranes)
# Format: biochemical
# Settings: inhibition of 35S-GTP binding induced by S1P1 receptor selective agonist; HEK293 membranes expressing human S1P1
# Protocol: Confirmation Test of Antagonistic Activity for Human S1P1 Receptor
# Test compounds were tested by reduction of functional binding activity of ^35S-GTP (guanosine 5′-O-[gamma-thio] triphosphate, PerkinElmer) to G protein using cell membranes expressing human S1P1 (EDG-1). S1P1-pcDNA3.1/V5-His-Topo vector was prepared by inserting cDNA (NM_001400) encoding human S1P1 into the expression vector, pcDNA3.1/V5-His-Topo (registered trademark) (Invitrogen). Next, the above S1P1-pcDNA3.1 vector was transfected into HEK293 cells by Lipofectamine2000 (registered trademark) (Invitrogen). The transfected cells were incubated with D-MEM liquid medium each containing 10% FBS (Fetal bovine serum), 100 U/mL penicillin, 100 μg/mL streptomycin and 1 mg/mL Geneticin (registered trademark) (Invitrogen) in an incubator under the condition of 5% CO2 at 37° C. and Geneticin (registered mark)-resistant cell line stably expressing S1P1 were obtained. The obtained stably S1P1-expressing cells were incubated with D-MEM liquid medium each containing 10% FBS and 0.5 mg/mL Geneticin (registered trademark) in an incubator under the condition of 5% CO2 at 37° C. The cells grown to confluence were harvested by a buffer solution containing 50 mM Tris, 2 mM EDTA (ethylmediaminetetraacetic acid) and 125 mM sodium chloride, and centrifuged at 1880×g, 4° C. for 10 minutes. After a supernatant was removed, a cell pellet was resuspended by the same buffer solution. For making cell membranes fragile, this cell suspension was frozen at −80° C. and then thawed. The cells were centrifuged at 1880×g, 4° C. for 10 minutes, and a supernatant was removed. The cell pellet was suspended by adding the same buffer solution and a fracture solution (10 mM sodium bicarbonate and 5 mM EDTA, pH 7.5) at a ratio of 2:1. The cells were fractured by subjecting the cell suspension to ultrasonication, and a cell membrane fraction was isolated by centrifugation at 1880×g, 4° C. for 10 minutes and ultracentrifugation of the supernatant at 80000×g, 4° C. for 30 minutes. A pellet of the cell membrane fraction was suspended by the fracture solution containing protease inhibitor cocktail (Roche) and stored at −80° C. until use. A protein concentration of the cell membrane fraction was determined using BCA Protein Assay Kit (Pierce) in accordance with an attached protocol.
# Inhibitory activity evaluation was performed by multi-screen (registered trademark) HTS 96-well plate (Millipore) using the cell membrane fraction stably expressing S1P1 obtained by the above operation. 25 μL of assay solution (50 mM Tris, 100 mM sodium chloride, 5 mM magnesium chloride, 1 mM EDTA, 1 mM DTT (dithiothreitol), 10 μM GDP (guanosine diphosphate) and 0.5% BSA (bovine serum albumin), pH 7.4), 25 μL of test compounds solution diluted by assay solution and 25 μL of the membrane fraction (0.2 μg protein/μL) were added to each well, and the mixture was gently shaken at room temperature: for 30 minutes. Then, 25 μL of ^35S-GTP, and 25 μL of 50 nM S1P1 receptor selective agonist (1-[4-(4-phenyl-5-trifluoromethylthiophen-2-ylmethoxy)benzyl]azetidine-3-carboxylic acid, “J. Med. Chem.”, 2004, vol. 47, pp. 6662-6665, compound 18) were added to each well, respectively, and it was reacted at room temperature for 60 minutes. After the reaction, a reaction solution of each well was suction-filtered. After suction filtration, ice-colded wash solution (50 mM Tris, 100 mM sodium chloride, […] and 1 mM EDTA, pH 7.4) was added to each well, and moreover filters were washed by suction filtration. This wash procedure was performed three times. A bottom of the plate containing the filters was dried at 60° C. After drying, 30 μL of MicroScinti-40 (PerkinElmer) was added to each well, and the radioactivity adsorbed on the filter was determined by TopCount NXT (registered trademark) (PerkinElmer) after shaking for 30 minutes at room temperature. […]
# human S1P1 (EDG-1), sequence (P21453 whole entry): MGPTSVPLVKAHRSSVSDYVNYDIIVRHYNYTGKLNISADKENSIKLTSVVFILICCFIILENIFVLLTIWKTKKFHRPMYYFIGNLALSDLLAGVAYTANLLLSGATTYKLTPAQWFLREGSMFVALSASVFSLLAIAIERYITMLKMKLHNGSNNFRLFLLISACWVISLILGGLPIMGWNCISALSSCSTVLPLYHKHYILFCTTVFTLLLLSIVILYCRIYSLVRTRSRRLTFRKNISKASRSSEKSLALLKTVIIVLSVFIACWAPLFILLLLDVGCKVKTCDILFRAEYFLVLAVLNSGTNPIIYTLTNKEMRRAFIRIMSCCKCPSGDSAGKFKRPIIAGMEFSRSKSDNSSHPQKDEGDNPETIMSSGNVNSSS
row,IC50 [nM],Compound
1,2.8,CCN(c1ccc(Cl)c(C)c1)C1CCc2c(CN3CC(C(=O)O)C3)cccc21 (stereo not drawn) [Compound 6-3]
2,4.4,"CCN(c1ccc(Cl)c(C(F)(F)F)c1)C(C)c1ccc(CO)c(CN2CC(C(=O)O)C2)c1 (stereo not drawn) [Compound 5-1, 1-(5-{1-[(4-Chloro-3-trifluoromethylphenyl)(ethyl)amino]ethyl}-2-hydroxymethyl-benzyl)azetidine-3-carboxylic acid]"
3,1.2,CCN(c1ccc(Cl)c(C)c1)[C@H](C)c1cccc(CN2CC(C(=O)O)C2)c1 [Compound 6-5]
4,2.5,CCN(c1ccc(Cl)c(C(F)(F)F)c1)C(CO)c1ccc(C)c(CN2CC(C(=O)O)C2)c1 (stereo not drawn) [Compound 6-2]
5,8.6,Cc1ccc(C(C)N(CCO)c2ccc(Cl)c(C(F)(F)F)c2)cc1CN1CC(C(=O)O)C1 (stereo not drawn) [Compound 2-37]
6,1.2,CCN(c1ccc(Cl)c(C)c1)C(C)c1cc(Cl)cc(CN2CC(C(=O)O)C2)c1 (stereo not drawn) [Compound 2-29]
7,1.2,"C=Cc1ccc(C(C)N(CC)c2ccc(Cl)c(C(F)(F)F)c2)cc1CN1CC(C(=O)O)C1 (stereo not drawn) [Compound 4-1, 1-(5-{1-[(4-Chloro-3-trifluoromethylphenyl)(ethyl)amino]ethyl}-2-vinylbenzyl)-azetidine-3-carboxylic acid]"
8,0.9,CCN(c1cccc(Cl)c1)C(C)c1ccc(C)c(CN2CC(C(=O)O)C2)c1 (stereo not drawn) [Compound 2-49]
9,8.9,"CCN(Cc1cccc(CN2CC(C(=O)O)C2)c1)c1ccc(Cl)c(C)c1 [Compound 3-1, 1-(3-{[(4-Chloro-3-methylphenyl)(ethyl)amino]methyl}benzyl)azetidine-3-carboxylic acid]"
10,6.9,CCN(c1ccc(Cl)c(C)c1)C(C)c1ccc(OC)c(CN2CC(C(=O)O)C2)c1 (stereo not drawn) [Compound 2-30]
11,12.8,CCN(c1ccc(Cl)c(C)c1)C1CCCc2c(CN3CC(C(=O)O)C3)cccc21 (stereo not drawn) [Compound 3-7]
12,1.9,"CCN(c1ccc(Cl)c(C(F)(F)F)c1)C(C)c1ccc(C(F)(F)F)c(CN2CC(C(=O)O)C2)c1 (stereo not drawn) [Compound 2-41, 1-(5-{1-[(4-Chloro-3-trifluoromethylphenyl)(ethyl)amino]ethyl}-2-trifluoromethylbenzyl)azetidine-3-carboxylic acid]"
13,1.1,"CCN(c1ccc(Cl)c(C)c1)C(C)c1ccc(Cl)c(CN2CC(C(=O)O)C2)c1 (stereo not drawn) [Compound 2-32, 1-(2-Chloro-5-{1-[(4-chloro-3-methylphenyl)(ethyl)amino]ethyl}benzyl)-azetidine-3-carboxylic acid]"
14,3.1,CCN(c1cc(C(F)(F)F)cc(C(F)(F)F)c1)C(C)c1ccc(C)c(CN2CC(C(=O)O)C2)c1 (stereo not drawn) [Compound 4-2]
15,15.3,Cc1cc(N(Cc2cccc(CN3CC(C(=O)O)C3)c2)C(C)C)ccc1Cl [Compound 3-4]
16,1.8,CCN(c1ccc(Cl)cc1)C(C)c1ccc(C)c(CN2CC(C(=O)O)C2)c1 (stereo not drawn) [Compound 2-47]
17,3.7,CCN(c1ccc(Cl)c(C(F)(F)F)c1)C1CCc2c(CN3CC(C(=O)O)C3)cccc21 (stereo not drawn) [Compound 2-24]
18,5,CCN(c1ccc(Cl)c(C)c1)C1CCc2c(CN3CC(C(=O)O)C3)cc(C)cc21 (stereo not drawn) [Compound 2-22]
19,1.5,"CCN(c1ccc(Cl)c(C(F)(F)F)c1)C(C)c1ccc(Cl)c(CN2CC(C(=O)O)C2)c1 (stereo not drawn) [Compound 2-34, 1-(2-Chloro-5-{1-[(4-chloro-3-trifluoromethylphenyl)(ethyl)amino]ethyl}-benzyl)azetidine-3-carboxylic acid]"
20,5.7,"CCN(c1ccc(Cl)c(C)c1)C(C)c1ccc(F)c(CN2CC(C(=O)O)C2)c1 (stereo not drawn) [Compound 2-31, 1-(5-{1-[(4-Chloro-3-methylphenyl)(ethyl)amino]ethyl}-2-fluorobenzyl)-azetidine-3-carboxylic acid]"
21,7.8,"CC(c1ccc(Cl)c(CN2CC(C(=O)O)C2)c1)N(C)c1ccc(Cl)c(C(F)(F)F)c1 (stereo not drawn) [Compound 2-33, 1-(2-Chloro-5-{1-[(4-chloro-3-trifluoromethylphenyl)(methyl)amino]-ethyl}benzyl)azetidine-3-carboxylic acid]"
22,3.4,Cc1ccc2c(c1CN1CC(C(=O)O)C1)CCC2N(CCO)c1ccc(Cl)c(C(F)(F)F)c1 (stereo not drawn) [Compound 2-39]
23,1.9,"CCC(c1ccc(C)c(CN2CC(C(=O)O)C2)c1)N(CC)c1ccc(Cl)c(C)c1 (stereo not drawn) [Compound 2-46, 1-(5-{1-[(4-Chloro-3-methylphenyl)(ethyl)amino]propyl}-2-methylbenzyl)-azetidine-3-carboxylic acid]"

# Further lines, the compound ahead of its results:
row,Compound,IC50 [nM]
1,CCN(Cc1ccc(C)c(CN2CC(C(=O)O)C2)c1C)c1ccc(Cl)c(C)c1 [Compound 2-11],1.1
2,"CCN(c1ccc(Cl)c(C)c1)C1CCc2c1ccc(C)c2CN1CC(C(=O)O)C1 (stereo not drawn) [Compound 2-21, 1-{1-[(4-Chloro-3-methylphenyl)(ethyl)amino]-5-methylindan-4-ylmethyl}-azetidine-3-carboxylic acid]",1.9
3,"Cc1ccc2c(c1CN1CC(C(=O)O)C1)CCC2N(C)c1ccc(Cl)c(C(F)(F)F)c1 (stereo not drawn) [Compound 2-10, 1-{1-[(4-Chloro-3-trifluoromethylphenyl)(methyl)amino]-5-methylindan-4-ylmethyl}azetidine-3-carboxylic acid]",2.5
4,Cc1cc(N(C)Cc2cccc(CN3CC(C(=O)O)C3)c2)ccc1Cl [Compound 1-2],7.6
5,"CCN(c1ccc(Cl)c(C)c1)C1CCc2c1ccc(F)c2CN1CC(C(=O)O)C1 (stereo not drawn) [Compound 2-15, 1-{1-[(4-Chloro-3-methylphenyl)(ethyl)amino]-5-fluoroindan-4-ylmethyl}-azetidine-3-carboxylic acid]",2.5
6,"CCCN(c1ccc(Cl)c(C)c1)C(C)c1ccc(C)c(CN2CC(C(=O)O)C2)c1 (stereo not drawn) [Compound 2-14, 1-(5-{1-[(4-Chloro-3-methylphenyl)(propyl)amino]ethyl}-2-methylbenzyl)-azetidine-3-carboxylic acid]",1.7
7,CCN(c1ccc(Cl)c(C)c1)C1CCc2c1ccc(OC)c2CN1CC(C(=O)O)C1 (stereo not drawn) [Compound 2-18],4.7
8,Cc1cc(N(C)C(C)c2ccc(C)c(CN3CC(C(=O)O)C3)c2)ccc1Cl (stereo not drawn) [Compound 2-13],21.5
9,"Cc1cc(NC(C)c2ccc(C)c(CN3CC(C(=O)O)C3)c2)ccc1Cl (stereo not drawn) [Comparative Example 1, 1-{5-[1-(4-Chloro-3-methylphenylamino)ethyl]-2-methylbenzyl}azetidine-3-carboxylic acid, reference compound]",441
10,Cc1cc(N(Cc2ccc(C)c(CN3CC(C(=O)O)C3)c2)C(C)C)ccc1Cl [Compound 2-3],2.8
11,CCC(c1cccc(CN2CC(C(=O)O)C2)c1)N(CC)c1ccc(Cl)c(C)c1 (stereo not drawn) [Compound 2-12],6.8
12,"CCN(Cc1ccc(C)c(CN2CC(C(=O)O)C2)c1)c1ccc(Cl)c(C)c1 [Compound 2-1, 1-(5-{[(4-Chloro-3-methylphenyl)(ethyl)amino]methyl}-2-methylbenzyl)azetidine-3-carboxylic acid]",5.3
13,Cc1ccc(C(C)N(C)c2ccc(C#N)c(C(F)(F)F)c2)cc1CN1CC(C(=O)O)C1 (stereo not drawn) [Compound 2-44],9
14,Cc1cc(CN2CC(C(=O)O)C2)c2c(c1)C(N(C)c1ccc(Cl)c(C)c1)CC2 (stereo not drawn) [Compound 2-9],22.2
15,Cc1cc(N(C)C2CCc3c(CN4CC(C(=O)O)C4)cccc32)ccc1Cl (stereo not drawn) [Compound 2-17],27.3
16,CCN(c1ccc(Cl)c(C)c1)C1CCc2c(CN3CC(C(=O)O)C3)cc(F)cc21 (stereo not drawn) [Compound 2-16],3.3
